Values of other authors, collected in patent publication US20120283306A1, “MOUSE MODEL FOR AVM” (Georgia Health Sciences University, priority 2011, published 2012).

Details: mouse, in vivo

With `Cc1ccc(-c2cc(C(F)(F)F)nn2-c2ccc(S(N)(=O)=O)cc2)cc1` [celecoxib] as the compound, how does the tolerability in mice read?
Its tolerability in mice is “well tolerated”.
